Results: article PMC6553790 (PLoS Pathogens, 2019)
Entries after “also recorded” stand apart in the source; their conditions may differ.

system: P. falciparum Cam3.II lines; assay: Isobologram analyses (fixed-ratio drug combinations); type: cell-based, Plasmodium falciparum; conditions: across asynchronous parasites, early rings and trophozoites
Description: Assays were performed with fixed ratios of drug combinations (1:0, 4:1, 2:1, 1:1, 1:2, 1:4, and 0:1), tested in duplicate. Combinations were prepared from 16×IC50 drug stocks and tested across a range of two-fold dilutions. Assays were conducted with asynchronous cultures exposed for 72 hr or with tightly synchronized rings or trophozoites (tested at 0–3 hr or 24–27 hr post-invasion, respectively) exposed for 3 hr. Post-pulse drug washouts were conducted as described above for in vitro determination of IC50 levels. IC50 values were derived for each compound tested alone, and fractional IC50 (FIC50) values were determined for each compound tested in combination (FIC50 = […]) and plotted for each drug combination. For each combination, the mean of the sums of FIC50 values at each combination (mean ΣFIC50) was also calculated and the results illustrated using heat maps.

SMILES	Interaction with WLL or WLW
Clc1ccc2c(N3CCN(CCCN4CCN(c5ccnc6cc(Cl)ccc56)CC4)CC3)ccnc2c1 [PPQ, piperaquine]	Additive to antagonistic; also recorded: antagonism observed in asynchronous parasites and early rings was attenuated in trophozoites

same assay, conditions: asynchronous parasites and trophozoites

SMILES	Interaction with WLW (isobologram)
CC1(C)C(N(O)C(=O)Nc2ccc(Cl)cc2)N(c2ccc(Cl)cc2)C(=O)N1CC(=O)N/N=C/C=C/c1ccc([N+](=O)[O-])o1 (centres unmarked) [ESI, eeyarestatin I]	additive

same assay, conditions: asynchronous parasites, 72 hr

SMILES	Interaction with WLL or WLW
CC(=O)N1CCN(c2ccc(CN(C(=O)/C=C/c3ccc(C(C)(C)C)cc3)[C@@H](Cc3ccccc3)C(=O)N3CCN(Cc4ccc(C#N)cc4)CC3)cc2)CC1 [ACT-451840]	antagonism
O=C(O)CCc1cccc2c1B(O)OC2 [AN3661]	antagonism

same assay, conditions: asynchronous parasites, rings and trophozoites (S1 Fig)

SMILES	Interaction with WLL (isobologram)
CC1(C)C(N(O)C(=O)Nc2ccc(Cl)cc2)N(c2ccc(Cl)cc2)C(=O)N1CC(=O)N/N=C/C=C/c1ccc([N+](=O)[O-])o1 (centres unmarked) [ESI, eeyarestatin I]	largely additive

same assay, conditions: combined with WLL; Asynchronous, 72 hr; Cam3.II K13C580Y

SMILES	Mean of the sums of FIC50 (mean ΣFIC50)
CC(=O)N1CCN(c2ccc(CN(C(=O)/C=C/c3ccc(C(C)(C)C)cc3)[C@@H](Cc3ccccc3)C(=O)N3CCN(Cc4ccc(C#N)cc4)CC3)cc2)CC1 [ACT-451840]	1.27
O=C(O)CCc1cccc2c1B(O)OC2 [AN3661]	1.58
CC1(C)C(N(O)C(=O)Nc2ccc(Cl)cc2)N(c2ccc(Cl)cc2)C(=O)N1CC(=O)N/N=C/C=C/c1ccc([N+](=O)[O-])o1 (centres unmarked) [ESI, eeyarestatin I]	1.29
Clc1ccc2c(N3CCN(CCCN4CCN(c5ccnc6cc(Cl)ccc56)CC4)CC3)ccnc2c1 [PPQ, piperaquine]	1.37

same assay, conditions: combined with WLL; Asynchronous, 72 hr; Cam3.II K13WT

SMILES	Mean of the sums of FIC50 (mean ΣFIC50)
CC(=O)N1CCN(c2ccc(CN(C(=O)/C=C/c3ccc(C(C)(C)C)cc3)[C@@H](Cc3ccccc3)C(=O)N3CCN(Cc4ccc(C#N)cc4)CC3)cc2)CC1 [ACT-451840]	1.34
O=C(O)CCc1cccc2c1B(O)OC2 [AN3661]	1.69
CC1(C)C(N(O)C(=O)Nc2ccc(Cl)cc2)N(c2ccc(Cl)cc2)C(=O)N1CC(=O)N/N=C/C=C/c1ccc([N+](=O)[O-])o1 (centres unmarked) [ESI, eeyarestatin I]	1.28
Clc1ccc2c(N3CCN(CCCN4CCN(c5ccnc6cc(Cl)ccc56)CC4)CC3)ccnc2c1 [PPQ, piperaquine]	1.52

same assay, conditions: combined with WLL; Rings, 3 hr exposure; Cam3.II K13C580Y

SMILES	Mean of the sums of FIC50 (mean ΣFIC50)
CC1(C)C(N(O)C(=O)Nc2ccc(Cl)cc2)N(c2ccc(Cl)cc2)C(=O)N1CC(=O)N/N=C/C=C/c1ccc([N+](=O)[O-])o1 (centres unmarked) [ESI, eeyarestatin I]	1.09
Clc1ccc2c(N3CCN(CCCN4CCN(c5ccnc6cc(Cl)ccc56)CC4)CC3)ccnc2c1 [PPQ, piperaquine]	1.41

same assay, conditions: combined with WLL; Rings, 3 hr exposure; Cam3.II K13WT

SMILES	Mean of the sums of FIC50 (mean ΣFIC50)
CC1(C)C(N(O)C(=O)Nc2ccc(Cl)cc2)N(c2ccc(Cl)cc2)C(=O)N1CC(=O)N/N=C/C=C/c1ccc([N+](=O)[O-])o1 (centres unmarked) [ESI, eeyarestatin I]	1.05
Clc1ccc2c(N3CCN(CCCN4CCN(c5ccnc6cc(Cl)ccc56)CC4)CC3)ccnc2c1 [PPQ, piperaquine]	1.46

same assay, conditions: combined with WLL; Trophozoites, 3 hr exposure; Cam3.II K13C580Y

SMILES	Mean of the sums of FIC50 (mean ΣFIC50)
CC1(C)C(N(O)C(=O)Nc2ccc(Cl)cc2)N(c2ccc(Cl)cc2)C(=O)N1CC(=O)N/N=C/C=C/c1ccc([N+](=O)[O-])o1 (centres unmarked) [ESI, eeyarestatin I]	1.05
Clc1ccc2c(N3CCN(CCCN4CCN(c5ccnc6cc(Cl)ccc56)CC4)CC3)ccnc2c1 [PPQ, piperaquine]	1.23

same assay, conditions: combined with WLL; Trophozoites, 3 hr exposure; Cam3.II K13WT

SMILES	Mean of the sums of FIC50 (mean ΣFIC50)
CC1(C)C(N(O)C(=O)Nc2ccc(Cl)cc2)N(c2ccc(Cl)cc2)C(=O)N1CC(=O)N/N=C/C=C/c1ccc([N+](=O)[O-])o1 (centres unmarked) [ESI, eeyarestatin I]	1.19
Clc1ccc2c(N3CCN(CCCN4CCN(c5ccnc6cc(Cl)ccc56)CC4)CC3)ccnc2c1 [PPQ, piperaquine]	1.32

same assay, conditions: combined with WLW; Asynchronous, 72 hr; Cam3.II K13C580Y

SMILES	Mean of the sums of FIC50 (mean ΣFIC50)
CC(=O)N1CCN(c2ccc(CN(C(=O)/C=C/c3ccc(C(C)(C)C)cc3)[C@@H](Cc3ccccc3)C(=O)N3CCN(Cc4ccc(C#N)cc4)CC3)cc2)CC1 [ACT-451840]	1.14
O=C(O)CCc1cccc2c1B(O)OC2 [AN3661]	1.63
CC1(C)C(N(O)C(=O)Nc2ccc(Cl)cc2)N(c2ccc(Cl)cc2)C(=O)N1CC(=O)N/N=C/C=C/c1ccc([N+](=O)[O-])o1 (centres unmarked) [ESI, eeyarestatin I]	0.97
Clc1ccc2c(N3CCN(CCCN4CCN(c5ccnc6cc(Cl)ccc56)CC4)CC3)ccnc2c1 [PPQ, piperaquine]	1.33

same assay, conditions: combined with WLW; Asynchronous, 72 hr; Cam3.II K13WT

SMILES	Mean of the sums of FIC50 (mean ΣFIC50)
CC(=O)N1CCN(c2ccc(CN(C(=O)/C=C/c3ccc(C(C)(C)C)cc3)[C@@H](Cc3ccccc3)C(=O)N3CCN(Cc4ccc(C#N)cc4)CC3)cc2)CC1 [ACT-451840]	1.16
O=C(O)CCc1cccc2c1B(O)OC2 [AN3661]	1.64
CC1(C)C(N(O)C(=O)Nc2ccc(Cl)cc2)N(c2ccc(Cl)cc2)C(=O)N1CC(=O)N/N=C/C=C/c1ccc([N+](=O)[O-])o1 (centres unmarked) [ESI, eeyarestatin I]	0.98
Clc1ccc2c(N3CCN(CCCN4CCN(c5ccnc6cc(Cl)ccc56)CC4)CC3)ccnc2c1 [PPQ, piperaquine]	1.44

same assay, conditions: combined with WLW; Rings, 3 hr exposure; Cam3.II K13C580Y

SMILES	Mean of the sums of FIC50 (mean ΣFIC50)
CC1(C)C(N(O)C(=O)Nc2ccc(Cl)cc2)N(c2ccc(Cl)cc2)C(=O)N1CC(=O)N/N=C/C=C/c1ccc([N+](=O)[O-])o1 (centres unmarked) [ESI, eeyarestatin I]	0.80
Clc1ccc2c(N3CCN(CCCN4CCN(c5ccnc6cc(Cl)ccc56)CC4)CC3)ccnc2c1 [PPQ, piperaquine]	1.30

same assay, conditions: combined with WLW; Rings, 3 hr exposure; Cam3.II K13WT

SMILES	Mean of the sums of FIC50 (mean ΣFIC50)
CC1(C)C(N(O)C(=O)Nc2ccc(Cl)cc2)N(c2ccc(Cl)cc2)C(=O)N1CC(=O)N/N=C/C=C/c1ccc([N+](=O)[O-])o1 (centres unmarked) [ESI, eeyarestatin I]	0.73
Clc1ccc2c(N3CCN(CCCN4CCN(c5ccnc6cc(Cl)ccc56)CC4)CC3)ccnc2c1 [PPQ, piperaquine]	1.20

same assay, conditions: combined with WLW; Trophozoites, 3 hr exposure; Cam3.II K13C580Y

SMILES	Mean of the sums of FIC50 (mean ΣFIC50)
CC1(C)C(N(O)C(=O)Nc2ccc(Cl)cc2)N(c2ccc(Cl)cc2)C(=O)N1CC(=O)N/N=C/C=C/c1ccc([N+](=O)[O-])o1 (centres unmarked) [ESI, eeyarestatin I]	1.08
Clc1ccc2c(N3CCN(CCCN4CCN(c5ccnc6cc(Cl)ccc56)CC4)CC3)ccnc2c1 [PPQ, piperaquine]	1.20

same assay, conditions: combined with WLW; Trophozoites, 3 hr exposure; Cam3.II K13WT

SMILES	Mean of the sums of FIC50 (mean ΣFIC50)
CC1(C)C(N(O)C(=O)Nc2ccc(Cl)cc2)N(c2ccc(Cl)cc2)C(=O)N1CC(=O)N/N=C/C=C/c1ccc([N+](=O)[O-])o1 (centres unmarked) [ESI, eeyarestatin I]	0.97
Clc1ccc2c(N3CCN(CCCN4CCN(c5ccnc6cc(Cl)ccc56)CC4)CC3)ccnc2c1 [PPQ, piperaquine]	1.14

same assay, conditions: early ring stage

SMILES	Interaction with WLW (isobologram)
CC1(C)C(N(O)C(=O)Nc2ccc(Cl)cc2)N(c2ccc(Cl)cc2)C(=O)N1CC(=O)N/N=C/C=C/c1ccc([N+](=O)[O-])o1 (centres unmarked) [ESI, eeyarestatin I]	Mild synergy
